{
  "source": "paper PMC9930359",
  "about": "“Cytotoxicity of the methanol extracts and compounds of Brucea antidysenterica (Simaroubaceae) towards multifactorial drug-resistant human cancer cell lines” (BMC Complementary Medicine and Therapies, 2023)",
  "key": {"CCRF-CEM leukemia cells": {"test_system": "CCRF-CEM leukemia cells", "assay": "Resazurin reduction assay (RRA), cytotoxicity", "format": "cell-based", "details": "Homo sapiens, 72 h", "description": "(§1) In this work, 9 cancer cell lines with various drug resistance patterns as well as AML12 hepatocytes as normal control cell line were used. […] The AML12 hepatocytes were used for the comparison of the activities of the samples with HepG2 [40]. […] The RPMI-1640 medium was used for the culture of CCRF-CEM and CEM/ADR5000 cells whilst DMEM medium was used for carcinoma cells. The culture media were supplemented (complete medium) with 10% fetal bovine serum and 1% penicillin/streptomycin (Invitrogen, Eggenstein, Germany). […] To maintain the resistance phenotype of the resistant carcinoma cell lines such as MDA-MB-231/BCRP and HCT116 p53^−/−, and U87MG.ΔEGFR cells, the complete DMEM medium containing geneticin at 800 ng/ml and 400 µg/ml, respectively were used [41, 42].\n(§2) Cells were cultured in a standard condition consisted of a humidified 5% CO2 atmosphere and an incubation temperature of 37 °C. The tested concentration ranges were 0.63—80 µg/mL for the botanicals and 0.78—100 µM for phytochemicals. The incubation time of the treated cells was 72 h, and the fluorescence was measured with Infinite M2000 Pro™ plate reader (Tecan, Crailsheim, Germany). The wavelengths used were 544 nm for the excitation and 590 nm for the emission. […] The degree of resistance (D.R.) was set as the ratio of the IC50 values of samples in the resistant cell line vs that of corresponding sensitive cell line. The selectivity index (S.I.) was the ratio of the IC50 value of AML12 hepatocytes vs. that of HepG2 cells [13, 48]."}, "CEM/ADR5000 cells": {"test_system": "CEM/ADR5000 cells", "assay": "Resazurin reduction assay (RRA), cytotoxicity", "format": "cell-based, human", "protocol": "(§3) The RPMI-1640 medium was used for the culture of CCRF-CEM and CEM/ADR5000 cells whilst DMEM medium was used for carcinoma cells. The culture media were supplemented (complete medium) with 10% fetal bovine serum and 1% penicillin/streptomycin (Invitrogen, Eggenstein, Germany). […] To maintain the resistance phenotype of the resistant carcinoma cell lines such as MDA-MB-231/BCRP and HCT116 p53^−/−, and U87MG.ΔEGFR cells, the complete DMEM medium containing geneticin at 800 ng/ml and 400 µg/ml, respectively were used [41, 42].\nas §2"}, "MDA-MB-231-pcDNA cells": {"test_system": "MDA-MB-231-pcDNA cells", "assay": "Resazurin reduction assay (RRA), cytotoxicity", "format": "cell-based", "details": "Homo sapiens, 72 h", "description": "as §1, §2"}, "HCT116 p53+/+ cells": {"test_system": "HCT116 p53+/+ cells", "assay": "Resazurin reduction assay (RRA), cytotoxicity", "format": "cell-based", "details": "Homo sapiens, HCT-116, 72 h", "description": "as §1, §2"}, "HCT116 p53−/− cells": {"test_system": "HCT116 p53−/− cells", "assay": "Resazurin reduction assay (RRA), cytotoxicity", "format": "cell-based, human", "details": "Homo sapiens, HCT-116; HCT116 p53−/−, 72 h", "protocol": "as §3, §2"}, "U87MG cells": {"test_system": "U87MG cells", "assay": "Resazurin reduction assay (RRA), cytotoxicity", "format": "cell-based", "details": "Homo sapiens, U-87 MG, 72 h", "description": "as §1, §2"}, "U87MG.ΔEGFR cells": {"test_system": "U87MG.ΔEGFR cells", "assay": "Resazurin reduction assay (RRA), cytotoxicity", "format": "cell-based, human", "details": "Homo sapiens; U87MG.ΔEGFR, 72 h", "protocol": "as §3, §2"}, "HepG2 cells": {"test_system": "HepG2 cells", "assay": "Resazurin reduction assay (RRA), cytotoxicity", "format": "cell-based", "details": "Homo sapiens, HepG2, 72 h", "description": "as §1, §2"}, "AML12 hepatocytes": {"test_system": "AML12 hepatocytes", "assay": "Resazurin reduction assay (RRA), cytotoxicity on normal hepatocytes", "format": "cell-based", "protocol": "as §3, §2"}, "[1]": {"test_system": "A-549 lung carcinoma cells, MCF-7 breast cancer cells, and PC-3 prostate cancer cells", "details": "three reported cancer cell lines ref Makong et al. [30]; cited from earlier work"}, "MDA-MB-231-BCRP cells": {"test_system": "MDA-MB-231-BCRP cells", "assay": "Resazurin reduction assay (RRA), cytotoxicity", "details": "Homo sapiens, MDA-MB-231/BCRP, 72 h", "protocol": "as §3, §2"}},
  "data": [
    {"smiles": "COc1cc([C@H]2Oc3c(OC)cc4ccc(=O)oc4c3O[C@@H]2CO)cc(OC)c1O", "note": "[Compound 6, cleomiscosin C]", "values": [
      {"measurement": "IC50", "setting": "CCRF-CEM leukemia cells", "value": "23.2 ± 1.63", "unit": "µM"},
      {"measurement": "IC50", "setting": "CEM/ADR5000 cells; Homo sapiens, CEM/ADR5000, 72 h", "value": "> 100", "unit": "µM"},
      {"measurement": "Degree of resistance (D.R.)", "setting": "CEM/ADR5000 cells; ratio of IC50 CEM/ADR5000 vs CCRF-CEM", "value": "> 4.31"},
      {"measurement": "IC50", "setting": "MDA-MB-231-pcDNA cells", "value": "> 100", "unit": "µM"},
      {"measurement": "IC50", "setting": "HCT116 p53+/+ cells", "value": "> 100", "unit": "µM"},
      {"measurement": "IC50", "setting": "HCT116 p53−/− cells", "value": "> 100", "unit": "µM"},
      {"measurement": "IC50", "setting": "U87MG cells", "value": "> 100", "unit": "µM"},
      {"measurement": "IC50", "setting": "U87MG.ΔEGFR cells", "value": "> 100", "unit": "µM"},
      {"measurement": "IC50", "setting": "HepG2 cells", "value": "15.5 ± 1.06", "unit": "µM"},
      {"measurement": "IC50", "setting": "AML12 hepatocytes; Mus musculus, AML12 normal hepatocytes, 72 h", "value": "> 100", "unit": "µM"},
      {"measurement": "Selectivity index (S.I.)", "setting": "AML12 hepatocytes; ratio of IC50 in AML12 vs IC50 in HepG2 cells", "value": "> 6.46"},
      {"measurement": "melting point", "value": "254 to 256", "unit": "°C"},
      {"measurement": "cytotoxic activity", "setting": "[1]", "value": "not active"},
      {"measurement": "IC50", "setting": "MDA-MB-231-BCRP cells", "value": "> 100", "unit": "µM"}
    ]}
  ]
}
